Source: PubChem BioAssay (NCI)
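Step 1: Grow cells in 96-well plates. Step 2: Expose to compound for 48 hours at 5 concentrations. Step 3: Interpolate endpoints linearly; if unreached, use highest concentration. At the GI50, growth is halved. Definition used: TGI = concentration required for complete inhibition of growth.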

Columns and labels:
Assay in all cases: NCI tumour cell line growth inhibition, 48 h
[1] = system: OVCAR-4 ovarian
[2] = system: SNB-75 CNS
[3] = system: SW-620 colon
[4] = system: OVCAR-8 ovarian
[5] = system: HOP-62 NSCLC
[6] = system: M14 melanoma
[7] = system: SK-MEL-2 melanoma
[8] = system: SN12C renal
[9] = system: PC-3 prostate
[10] = system: DU-145 prostate

Compound | TGI [1] [µM] | TGI [2] [µM] | TGI [3] [µM] | TGI [4] [µM] | TGI [5] [µM] | TGI [6] [µM] | TGI [7] [µM] | TGI [8] [µM] | GI50 [1] [µM] | GI50 [9] [µM] | TGI [9] [µM] | GI50 [4] [µM] | GI50 [5] [µM] | GI50 [10] [µM] | TGI [10] [µM] | GI50 [7] [µM] | GI50 [8] [µM] | GI50 [2] [µM] | GI50 [3] [µM] | GI50 [6] [µM]
CCCCNC1=C(C(=O)OCC)C(=O)CO1 | > 100 | > 100 | > 100 | > 100 | > 100 | > 100 | > 100 | > 100 |  |  |  |  |  |  |  |  |  |  |  | 
N#C/C(=C/c1ccsc1)C(=O)c1ccccc1 | > 100 | > 100 | > 100 | > 100 | > 100 | > 100 | > 100 | > 100 |  |  |  |  |  |  |  |  |  |  |  | 
CCOc1ccc2c(c1)[n+]([O-])c(S(=O)(=O)c1ccc(C)cc1)c(N)[n+]2[O-] | > 100 | > 100 | > 100 | > 100 | > 100 | > 100 | > 100 |  |  |  |  |  |  |  |  |  |  |  |  | 
CC(=O)Nc1ccccc1Sc1ccccc1 | > 100 | > 100 | > 100 | > 100 | > 100 | > 100 | > 100 | > 100 |  |  |  |  |  |  |  |  |  |  |  | 
COc1ccccc1C1C(C(=O)Nc2ccccc2)=C(C)NC(C)=C1C(=O)Nc1ccccc1 | > 100 | > 100 | > 100 | > 100 | > 100 | > 100 | > 100 | > 100 |  |  |  |  |  |  |  |  |  |  |  | 
COc1cc(/C=C/c2cc(/C=C/c3ccc(O)c(OC)c3)n(-c3ccccc3)n2)ccc1O | 4.95 |  |  | 3.55 | 1.52 |  | 2.03 | 2.2 | 0.536 | 0.332 | 12.7 | 0.466 | 0.404 | 0.399 | 1.4 | 0.266 | 0.313 |  |  | 
COc1ccc2ccc3c(c2c1)CN1CCc2cc(OC)c(OC)cc2C1C3 (centres undefined) | > 100 | 96.8 | > 100 | > 100 | > 100 | > 100 | > 100 | > 100 |  |  |  |  |  |  |  |  |  |  |  | 
CSc1cc(N=Nc2nc3ccccc3s2)c2ccccc2c1O |  | 11.9 | 34.8 | 39 | 20 | 21.6 | 22 | 12.9 |  | 13.4 | > 50 | 13.6 | 10.2 | 9.16 | 16.9 | 8.41 | 6.1 | 0.0869 | 13.3 | 9.55
O=C(CI)NC1Oc2ccccc2-c2oc(=O)c(-c3ccccc3)cc21 (centres undefined) |  | 2.94 |  | 4.47 | 3.81 | 3.2 | 5.43 |  |  |  |  | 1.79 | 1.87 | 1.57 | 2.98 | 2.17 |  | 1.54 |  | 1.67
CCCCCCCCCC[C@@H](O)[C@@H]1CC[C@H]([C@H]2CC[C@@H]([C@@H](O)CCCCCCCCCC[C@H]3CC(CC(C)=O)C(=O)O3)O2)O1 (some centres undefined) | 21.7 | 26.9 | 38 | 37.8 | 31 | 35.3 | 30.7 | 49.1 |  |  |  |  |  |  |  |  |  |  |  | 
